Consider five molecules from patent US20260008739A1, “CRYSTAL AND FORMULATION OF REDUCED COENZYME Q10” (KANEKA CORPORATION, priority 2023, published 2026).

The data set is described as follows: Oxidation stability of QH crystals on storage at 40° C. and 75% RH (HPLC of reduced and oxidized coenzyme Q10). The data set is classed as physicochemical. Particulars: for Relative QH ratio: QH ratio before storage = 100; for Oxidizing rate: crystal stored at 40° C. and 75% RH for approximately 1 month, decrease in relative QH ratio divided by days of storage. The procedure:
The QH crystals prepared in Examples 1 to 3 and Comparative Examples 1 and 2 above were stored at 40° C. and 75% RH in a thermostatic chamber for approximately 1 month. Before and after the storage, the reduced coenzyme Q10 content and the oxidized coenzyme Q10 content of the crystal were measured by HPLC (high performance liquid chromatography). On the basis of the measurement results, the below-described QH ratio, relative QH ratio after storage, and oxidizing rate were calculated.
• Column: AS12S05-1546WT (manufactured by YMC Co., Ltd.) 150 mm (in length) and 4.6 mm (in inner diameter) • Mobile phase: C2H3N: CH3OH=1:9 (v:v) • Detection wavelength: 290 nm • Flow rate: 1 ml/min
The “QH ratio” means the ratio of the amount of the reduced coenzyme Q10 to the total amount of the coenzyme Q10 present in the crystal, and is calculated in accordance with the following formula.
The “relative QH ratio after storage” is a value obtained by relativizing the QH ratio after storage on the basis of each of the QH ratios measured before the start of storage and after storage, assuming that the QH ratio before storage is 100. The relative QH ratio after storage is calculated in accordance with the following formula.
The “oxidizing rate” is a value obtained by dividing a change (amount of decrease) in the relative QH ratio in the period of storage by the number of days of storage, and is calculated in accordance with the following formula.

Setting [1] is: crystal stored at 40° C. and 75% RH for 28 days.

For `COc1c(O)c(C)c(C/C=C(\C)CC/C=C(\C)CC/C=C(\C)CC/C=C(\C)CC/C=C(\C)CC/C=C(\C)CC/C=C(\C)CC/C=C(\C)CC/C=C(\C)CCC=C(C)C)c(O)c1OC` [Comparative Example 1, reduced coenzyme Q10], the Oxidizing rate came out at 0.48 %/day. In addition, the “Relative QH ratio” value (crystal stored at 40° C. and 75% RH for 29 days) is reported as 86.1 (when stored %.
For `COc1c(O)c(C)c(C/C=C(\C)CC/C=C(\C)CC/C=C(\C)CC/C=C(\C)CC/C=C(\C)CC/C=C(\C)CC/C=C(\C)CC/C=C(\C)CC/C=C(\C)CCC=C(C)C)c(O)c1OC` [Example 2, reduced coenzyme Q10], the Oxidizing rate came out at 0.26 %/day. The “Relative QH ratio” value under setting [1] was 92.6 (when stored %.
The matching figures for `COc1c(O)c(C)c(C/C=C(\C)CC/C=C(\C)CC/C=C(\C)CC/C=C(\C)CC/C=C(\C)CC/C=C(\C)CC/C=C(\C)CC/C=C(\C)CC/C=C(\C)CCC=C(C)C)c(O)c1OC` [Example 1, reduced coenzyme Q10]: 0.30 %/day and 91.6 (when stored %.
The matching figures for `COc1c(O)c(C)c(C/C=C(\C)CC/C=C(\C)CC/C=C(\C)CC/C=C(\C)CC/C=C(\C)CC/C=C(\C)CC/C=C(\C)CC/C=C(\C)CC/C=C(\C)CCC=C(C)C)c(O)c1OC` [Example 3, reduced coenzyme Q10]: 0.23 %/day and 93.5 (when stored %.
Taken in the same sequence, the figures for `COc1c(O)c(C)c(C/C=C(\C)CC/C=C(\C)CC/C=C(\C)CC/C=C(\C)CC/C=C(\C)CC/C=C(\C)CC/C=C(\C)CC/C=C(\C)CC/C=C(\C)CCC=C(C)C)c(O)c1OC` [Comparative Example 2, reduced coenzyme Q10] were 0.42 %/day and 88.2 (when stored %.
